The experiment concerns spontaneously hypertensive rats (SHR). Briefly: Antihypertensive activity test: blood pressure and heart rate of spontaneously hypertensive rats (SHR). The experiment is classed as in vivo, rat. The note with it: 200 mg/kg. Here is the method: Tested Drugs: Compounds of the Invention. The dosage of all compound was uniformly set to 200 mg/kg.
In the test, changes in the blood pressure before and after the administration were detected, and compared with the basic value, a reduction of SBP ≥20 mmHg after administration was judged as effective antihypertensive effects; and at the same time, changes in the heart rate before and after the administration were detected.
Heart rate was expressed as mean±standard deviation (x±s). The changes of heart rate before and after the administration were compared by using Two-sample equal variance paired t test, and P<0.05 was regarded as the standard of statistically significant difference.

[1] abbreviates: after administration (6 h M ± SD), n = 8.
Setting [2] is: before administration, M ± SD, n = 8.

SMILES strings stand for the structures.

Regarding `CC(C)(O)[C@H](O)[C@H](O)c1cccc2[nH]ccc12` [Compound 21], the “SBP Difference before and after administration, 1 h” value (1 h) is on record as 11 mmHg. Besides, the “SHR blood pressure (SBP), time after administration 1 h” value (1 h, n = 8) came out at 184 ± 10.6 mmHg. The “SBP Difference before and after administration, 2 h” value (2 h) is reported as 13 mmHg. The “SHR blood pressure (SBP), time after administration 2 h” value (2 h, n = 8) is 182 ± 10.4 mmHg. Moreover, the “SBP Difference before and after administration, 3 h” value (3 h) is 12 mmHg. For the same molecule, the “SHR blood pressure (SBP), time after administration 3 h” value (3 h, n = 8) worked out at 183 ± 9.90 mmHg. Besides, where the note is “4 h”, the “SBP Difference before and after administration, 4 h” value turned out to be 17 mmHg. Moreover, the “SHR blood pressure (SBP), time after administration 4 h” value (4 h, n = 8) amounted to 178 ± 6.61 mmHg. In addition, the “SBP Difference before and after administration, 5 h” value (5 h) was determined as 13 mmHg. Further, the “SHR blood pressure (SBP), time after administration 5 h” value (5 h, n = 8) amounted to 182 ± 7.25 mmHg. For the setting “6 h”, the “SBP Difference before and after administration, 6 h” value is recorded as 11 mmHg. Also, the “SHR blood pressure (SBP), time after administration 6 h” value (6 h, n = 8) came out at 184 ± 12.1 mmHg.
`CCc1cccc([C@@H](O)CO)c1` [Compound 1-1]: the “SBP Difference before and after administration, 0 h” value (0 h) is reported as 0 mmHg. The “SBP Difference before and after administration, 1 h” value (1 h) was 14 mmHg. Also, under “1 h, n = 8”, the “SHR blood pressure (SBP), time after administration 1 h” value worked out at 176 ± 12.4 mmHg. In addition, the “SBP Difference before and after administration, 2 h” value (2 h) turned out to be 22 mmHg. The “SHR blood pressure (SBP), time after administration 2 h” value (2 h, n = 8) was 168 ± 12.0 mmHg. Besides, the “SBP Difference before and after administration, 3 h” value (3 h) worked out at 29 mmHg. Moreover, where the note is “3 h, n = 8”, the “SHR blood pressure (SBP), time after administration 3 h” value is given as 161 ± 13.1 mmHg. Further, the “SBP Difference before and after administration, 4 h” value (4 h) stood at 24 mmHg. Also, the “SHR blood pressure (SBP), time after administration 4 h” value (4 h, n = 8) is given as 166 ± 11.4 mmHg. Besides, where the note is “5 h”, the “SBP Difference before and after administration, 5 h” value came out at 20 mmHg. For the same molecule, under “5 h, n = 8”, the “SHR blood pressure (SBP), time after administration 5 h” value stood at 170 ± 11.9 mmHg. For the same molecule, under “6 h”, the “SBP Difference before and after administration, 6 h” value was determined as 14 mmHg. Besides, the “SHR blood pressure (SBP), time after administration 6 h” value (6 h, n = 8) turned out to be 186 ± 10.1 mmHg.
Consider `CC(=O)c1ccc(C(O)CO)cc1` (centres unmarked) [Compound 10], for which the “SBP Difference before and after administration, 1 h” value (1 h) is recorded as 6 mmHg. Moreover, under “1 h, n = 8”, the “SHR blood pressure (SBP), time after administration 1 h” value is given as 186 ± 9.54 mmHg. The “SBP Difference before and after administration, 2 h” value (2 h) turned out to be 10 mmHg. Moreover, the “SHR blood pressure (SBP), time after administration 2 h” value (2 h, n = 8) was 182 ± 7.36 mmHg. Besides, the “SBP Difference before and after administration, 3 h” value (3 h) was found to be 13 mmHg. In addition, the “SHR blood pressure (SBP), time after administration 3 h” value (3 h, n = 8) was 179 ± 4.07 mmHg. Also, for the setting “4 h”, the “SBP Difference before and after administration, 4 h” value came out at 9 mmHg. For the same molecule, for the setting “4 h, n = 8”, the “SHR blood pressure (SBP), time after administration 4 h” value was 183 ± 7.65 mmHg. For the same molecule, the “SBP Difference before and after administration, 5 h” value (5 h) came to 7 mmHg. Under “5 h, n = 8”, the “SHR blood pressure (SBP), time after administration 5 h” value is on record as 185 ± 5.64 mmHg. Besides, under “6 h”, the “SBP Difference before and after administration, 6 h” value was 2 mmHg. Further, where the note is “6 h, n = 8”, the “SHR blood pressure (SBP), time after administration 6 h” value was found to be 190 ± 6.54 mmHg.
As for `COc1ccc([C@@H](O)[C@H](C)O)cc1Cl` [Compound 14], the “SBP Difference before and after administration, 1 h” value (1 h) is listed as 3 mmHg. Besides, the “SHR blood pressure (SBP), time after administration 1 h” value (1 h, n = 8) is listed as 182 ± 11.6 mmHg. Besides, under “2 h”, the “SBP Difference before and after administration, 2 h” value was determined as 7 mmHg. For the same molecule, the “SHR blood pressure (SBP), time after administration 2 h” value (2 h, n = 8) worked out at 178 ± 10.8 mmHg. Moreover, the “SBP Difference before and after administration, 3 h” value (3 h) came to 8 mmHg. In addition, the “SHR blood pressure (SBP), time after administration 3 h” value (3 h, n = 8) is reported as 177 ± 10.9 mmHg. For the same molecule, for the setting “4 h”, the “SBP Difference before and after administration, 4 h” value turned out to be 5 mmHg. For the same molecule, the “SHR blood pressure (SBP), time after administration 4 h” value (4 h, n = 8) worked out at 18 ± 15.80 mmHg. For the setting “5 h”, the “SBP Difference before and after administration, 5 h” value amounted to 1 mmHg. For the same molecule, the “SHR blood pressure (SBP), time after administration 5 h” value (5 h, n = 8) is reported as 184 ± 16.0 mmHg. For the same molecule, the “SBP Difference before and after administration, 6 h” value (6 h) was −1 mmHg. Under “6 h, n = 8”, the “SHR blood pressure (SBP), time after administration 6 h” value was 186 ± 17.7 mmHg.
On to `CCc1cccc(C(O)COC(=O)[C@@H](C)N)c1` (some centres unmarked) [Compound 22], for which the “SBP Difference before and after administration, 1 h” value (1 h) was 11 mmHg. Also, the “SHR blood pressure (SBP), time after administration 1 h” value (1 h, n = 8) is 187 ± 6.39 mmHg. In addition, for the setting “2 h”, the “SBP Difference before and after administration, 2 h” value came out at 14 mmHg. In addition, for the setting “2 h, n = 8”, the “SHR blood pressure (SBP), time after administration 2 h” value came out at 184 ± 4.69 mmHg. Moreover, where the note is “3 h”, the “SBP Difference before and after administration, 3 h” value was 26 mmHg. Moreover, the “SHR blood pressure (SBP), time after administration 3 h” value (3 h, n = 8) is 171 ± 12.14 mmHg. The “SBP Difference before and after administration, 4 h” value (4 h) is 25 mmHg. The “SHR blood pressure (SBP), time after administration 4 h” value (4 h, n = 8) is 173 ± 13.7 mmHg. In addition, under “5 h”, the “SBP Difference before and after administration, 5 h” value is given as 24 mmHg. Moreover, the “SHR blood pressure (SBP), time after administration 5 h” value (5 h, n = 8) stood at 174 ± 15.9 mmHg. Also, the “SBP Difference before and after administration, 6 h” value (6 h) turned out to be 20 mmHg. In addition, the “SHR blood pressure (SBP), time after administration 6 h” value (6 h, n = 8) was found to be 178 ± 8.78 mmHg.
For `CC(=O)OC(C)C(OC(C)=O)c1ccccc1` (centres unmarked) [Compound 15], where the note is “1 h”, the “SBP Difference before and after administration, 1 h” value stood at 14 mmHg. The “SHR blood pressure (SBP), time after administration 1 h” value (1 h, n = 8) was found to be 176 ± 9.55 mmHg. In addition, the “SBP Difference before and after administration, 2 h” value (2 h) is recorded as 18 mmHg. The “SHR blood pressure (SBP), time after administration 2 h” value (2 h, n = 8) worked out at 172 ± 7.36 mmHg. Moreover, the “SBP Difference before and after administration, 3 h” value (3 h) is 21 mmHg. For the same molecule, the “SHR blood pressure (SBP), time after administration 3 h” value (3 h, n = 8) came to 169 ± 4.07 mmHg. Further, the “SBP Difference before and after administration, 4 h” value (4 h) worked out at 17 mmHg. Further, under “4 h, n = 8”, the “SHR blood pressure (SBP), time after administration 4 h” value is on record as 173 ± 7.15 mmHg. Where the note is “5 h”, the “SBP Difference before and after administration, 5 h” value is given as 15 mmHg. For the same molecule, under “5 h, n = 8”, the “SHR blood pressure (SBP), time after administration 5 h” value worked out at 175 ± 5.61 mmHg. The “SBP Difference before and after administration, 6 h” value (6 h) worked out at 10 mmHg. Moreover, the “SHR blood pressure (SBP), time after administration 6 h” value (6 h, n = 8) was determined as 180 ± 6.66 mmHg.
Regarding `CCc1ccc(C(O)CO)cc1` (centres unmarked) [Compound 4], the “SHR heart rate, time after administration 0 h” value (0 h, N = 8) turned out to be 345 ± 42.2 beat/min. In addition, under “1 h”, the “Heart rate Difference before and after administration, 1 h” value is listed as 2 beat/min; the “SBP Difference before and after administration, 1 h” value was found to be 3 mmHg. The “SHR heart rate, time after administration 1 h” value (1 h, N = 8) is recorded as 347 ± 42.6 beat/min. For the same molecule, where the note is “1 h, n = 8”, the “SHR blood pressure (SBP), time after administration 1 h” value is listed as 182 ± 11.6 mmHg. Besides, where the note is “2 h”, the “Heart rate Difference before and after administration, 2 h” value stood at 4 beat/min; the “SBP Difference before and after administration, 2 h” value is reported as 7 mmHg. For the same molecule, where the note is “2 h, N = 8”, the “SHR heart rate, time after administration 2 h” value is 349 ± 49.7 beat/min. Further, the “SHR blood pressure (SBP), time after administration 2 h” value (2 h, n = 8) came out at 178 ± 10.8 mmHg. Besides, for the setting “3 h”, the “Heart rate Difference before and after administration, 3 h” value was found to be 4 beat/min; the “SBP Difference before and after administration, 3 h” value was 8 mmHg. For the same molecule, the “SHR heart rate, time after administration 3 h” value (3 h, N = 8) came out at 349 ± 48.3 beat/min. Moreover, the “SHR blood pressure (SBP), time after administration 3 h” value (3 h, n = 8) is 177 ± 10.9 mmHg. Besides, for the setting “4 h”, the “Heart rate Difference before and after administration, 4 h” value came to 0 beat/min; the “SBP Difference before and after administration, 4 h” value came to 5 mmHg. For the same molecule, the “SHR heart rate, time after administration 4 h” value (4 h, N = 8) was determined as 345 ± 45.1 beat/min. Under “4 h, n = 8”, the “SHR blood pressure (SBP), time after administration 4 h” value was 180 ± 15.80 mmHg. Where the note is “5 h”, the “Heart rate Difference before and after administration, 5 h” value is on record as −6 beat/min; the “SBP Difference before and after administration, 5 h” value is on record as 1 mmHg. Under “5 h, N = 8”, the “SHR heart rate, time after administration 5 h” value is 338 ± 39.7 beat/min. In addition, the “SHR blood pressure (SBP), time after administration 5 h” value (5 h, n = 8) stood at 184 ± 16.0 mmHg. Further, for the setting “6 h”, the “Heart rate Difference before and after administration, 6 h” value is −4 beat/min; the “SBP Difference before and after administration, 6 h” value is −1 mmHg. Further, the “SHR heart rate, time after administration 6 h” value (6 h, N = 8) is recorded as 341 ± 46.9 beat/min. The “SHR blood pressure (SBP), time after administration 6 h” value (6 h, n = 8) came to 186 ± 17.7 mmHg. For the same molecule, under setting [1], the “Blood pressure (SBP, mmHg) After administration” value worked out at 181 ± 13.2 mmHg and the “Heart rate (beat/min) After administration” value turned out to be 346 ± 43.4 beat/min. Further, under “after administration minus baseline (6 h)”, the “Heart rate Difference (beat/min)” value is reported as 1 beat/min. Besides, for the setting “baseline minus after administration (6 h)”, the “Blood pressure Difference mmHg” value came out at 3 mmHg. Also, under setting [2], the “Blood pressure (SBP, mmHg) Baseline” value was 184 ± 14.7 mmHg and the “Heart rate (beat/min) Baseline” value stood at 345 ± 42.2 beat/min.

Source of the values: patent US12180146B2, “Antihypertensive polyol compound and derivative thereof” (TAO PHARMACEUTICAL (SUZHOU) CO., LTD, priority 2020, dated 2024).
